Measurements published in patent US6068987A, “Histone deacetylase as target for antiprotozoal agents” (Merck & Co., Inc., priority 1999, dated 2000).

What was measured:
[1] = system: histone deacetylase (E. tenella oocyst S100 lysate); assay: Competitive binding assay with 3H-N-desmethoxyapicidin, E. tenella S100 lysate; conditions: for selectivity for E. tenella over chicken liver lysate in binding assay: E. tenella versus host (chicken liver) lysate
Description: E. tenella oocysts. Approximately 2×10^9 E. Tenella oocysts are suspended in 5 ml of PBS/0.1 mM PMSF, 4 mls of an equal mixture (vol/vol) of 4.0 and 1.0 mm glass beads is added. The glass bead-oocyst mixture is then shaken for 20 minutes to cause disruption of the oocysts. The efficiency of breakage is checked microscopically. The resulting homogenate is separated from the glass beads and centrifuged at 3000×g for 10 min. The supernatant is then subjected to an additional centrifugation at 100,000 g for 1 hr. The pellet is discarded and the supernatant, referred to as the E. Tenella S100 fraction, is retained for binding assays. After estimating the protein concentration, the supernatant (S100) is aliquoted and frozen at -80° C.
(§1) Each assay tube contains a final volume of 1 ml with 1.3 ng/ml of ^3 H-N-desmethoxyapicidin, 150-200 μg of the appropriate S100 supernatant and concentrations of potential HDA inhibitors from 0.001-10 μg/ml.
(§2) (i) labeled substrate. 2-^3 H-N-desmethoxyapicidin (18.69 mCi/mg) is diluted 1:100 in ethanol, and 2 μl added per 1 ml of 50 mM HEPES pH 7.4 with 0.05% Triton®-X100 (HEPES/Triton) is added. This provides 1.3 ng 2-^3 H-N-desmethoxyapicidin /ml of assay (54,000 DPM/ml.)
(§3) (ii) potential HDA inhibitors. The stocks of the test compounds are made up to 2 mg/ml dimethylsulfoxide (DMSO). The stock solution is diluted to 1000, 100, 10, 1 and 0.1 μg/ml in ethanol where a full titration is required. Ethanol is used as a negative control, a 100 μg/ml solution of unlabeled N-desmethoxyapicidin is used as a positive control. Six μl of the test compound solution, the positive and negative controls are used for the assay.
(§4) (iii) supernatant from (a). The S100 sample is diluted to a concentration of 3.0 mg protein/ml (chick liver) or 4 mg protein/ml (parasite) in the HEPES/Triton® buffer. Fifty μl is used for the assay.
(§5) Stock solutions of potential HDA inhibitors (ii) are diluted into 50 mM HEPES/Triton® buffer to achieve a final concentration of test compound in the range of […]. ^3 H-N-desmethoxyapicidin is added to a final concentration of 1.3 ng/ml. 50 μl of parasite or chick liver S100 solution (150-200 μg) is added to each tube. The assay mixture is incubated for 1 hr at 25° C. and then aspirated through Whatman GF/B filters impregnated with polyethylenimine (filters prepared in advance by soaking in 2 ml of polyethylenimine per 330 mls water at room temp for 1 hour). Assay tubes were rinsed 3 times with 1-2 mls of HEPES/Triton® and aspirated through the same filter. The filter is then dried and counted in scintillant.

[2] = target: histone deacetylase (chicken liver S100 lysate); assay: Competitive binding assay with 3H-N-desmethoxyapicidin, chick liver S100 lysate; conditions: for IC50: displacement of 3H-N-desmethoxyapicidin, chick liver S100
Description: Chick Liver. Livers from 3-5 three week old chickens are collected, rinsed in ice cold phosphate buffered saline (pH 7.4), diced into small pieces and rinsed again 3-4 times with ice cold 50 mM N-2-hydroxyethylpiperazine-N'-2-ethanesulfonic acid (HEPES) (pH 7.4) containing 0.1 mM phenylmethanesulfonyl fluoride (PMSF). The tissue is then resuspended in HEPES buffer, homogenized in a polytron homogenizer and centrifuged at 3000×g for 10 min. The supernatant is then subjected to an additional 100,000 g centifugation for 1 hour. The pellet and the floating layer of lipid are discarded and the supernatant, referred to as the chick liver S100 fraction, is retained for binding assays. After estimating the protein concentration, the supernatant (S100) is aliquoted and frozen at -80° C.
as §1, §2, §3, §4, §5

HeLa cell histones = assay: Histone acetylation state in HeLa cells (AUT gel electrophoresis); assay type: cell-based, human; conditions: HeLa cells treated 4 hrs, FIG. 1, relative to untreated cells
Description: About 2×10^7 HeLa cells growing at 37 C were treated with various compounds in the standard tissue culture medium (MEM containing 10% fetal calf serum) for 4 hrs. Cells were then removed from the flask by scraping in PBS in a total volume of about 10 mls. The cells were washed twice in PBS and resuspended in about 3 mls lysis buffer (Lysis buffer; 0.45% Nonidet® P-40, 10 mM tris, 10 mM NaCl, 5 mM MgCl, 0.1 mM EGTA, 0.1 mM PMSF). The suspension was mixed by vortexing for 10 seconds, incubated on ice for 15 minutes and nuclei were pelleted by centrifugation through a 1 ml cushion of 30% sucrose in lysis buffer at 1300×g for 10 minutes. The supernatant was discarded and the nuclei were then resuspended in 1.0 ml water. H2 SO4 was added to a final concentration of 0.4M and the nuclear suspension was incubated on ice for 30 min. and then pelleted by centrifugation at 13,000×g for 10 miunutes. […]
Acid urea triton (AUT) polyacrylarnide gels were performed according to the methods of Alfageme et al (1974) J. Biol. Chem. 249, 3729, with modifications as described in Lennox and Cohen (Methods in Enzymology, 170, 532-549). […] Gels were either stained with Coomassie Brilliant Blue R in 7% acetic acid, 20% methanol and then destained in 7% acetic acid and 20% methanol, or treated with Enlightening (from New England Nuclear), dried and radiolabel detected by fluorography.

P. falciparum histones = assay: Histone acetylation state in P. falciparum (14C acetate labeling, AUT gel); assay type: cell-based, Plasmodium falciparum; conditions: infected red blood cells, 14C sodium acetate, 2 hours, FIG. 2
Description: Acid urea triton (AUT) polyacrylarnide gels were performed according to the methods of Alfageme et al (1974) J. Biol. Chem. 249, 3729, with modifications as described in Lennox and Cohen (Methods in Enzymology, 170, 532-549). For optimal resolution of HeLa cell and Plasmodium falciparum histones the separation gel contained 7.5M urea, 12% acrylamide, 0.38% Triton® X 100, 0.08% bis acrylamide, and 0.87M acetic acid. The loading gels contained 7.5M urea, 0.37% Triton® X 100, 6% acrylamide, 0.04% bis acrylamide and 0.87M acetic acid. Gels were run in 1M acetic acid. Gels were pre-electrophoresed at 350V for 1 hour and run at 450 V for 3.5 hours. Gels were either stained with Coomassie Brilliant Blue R in 7% acetic acid, 20% methanol and then destained in 7% acetic acid and 20% methanol, or treated with Enlightening (from New England Nuclear), dried and radiolabel detected by fluorography.
Approximately 1×10^9 P. falciparum infected red blood cells (about 60% parasitized) were resuspended in 10 ml of RPMI 1640 containing various concentrations of test compounds and 250 μCi^14 C sodium acetate and incubated at 37° C. for 2 hours. The cells were then washed 3 time with PBS and histones were prepared as described below.
Histones were prepared according to the method of Cary et al (1994) Parasitology Research, 80, 255-258. […]

[3] = system: histone deacetylase (chicken liver extracts); assay: Histone deacetylase inhibition assay (Assay 1), chicken liver extract; assay type: biochemical
Description: (§6) The standard assay contained in a total volume of 40 μL: 400 nmol HEPES-sodium, pH 7.4, 100 pmol of the substrate [AcGly-Ala-Lys(ε-^14 C-Ac)-Arg-His-Arg-Lys(ε-^14 C-Ac)-ValNH2 ] (see Kervabon et al (1979) FEBS Letters 106: 93-96) having a specific activity of approx. 114 mCi/mmol, and a source of histone deacetylase (HDAase) activity. The amount of HDAase added was chosen such that ≤20% of the substrate was consumed during the assay. The reaction was initiated by enzyme addition and allowed to proceed for 60 min at 41°. At 60 min, the reaction was terminated by the addition of a 50% slurry of Amberlite AG 50 W×4 cation exchange resin, sodium form (200-400 mesh) in 25 mM sodium acetate buffer, pH 4.2 (200 μL). The resin binds both remaining substrate and the (partially) deacetylated peptidyl products. The quenched reaction was then incubated for at least 30 min at 25° with occassional mixing, diluted with additional 25 mM sodium acetate buffer, pH 4.2 (760 μL; final volume 1000 μL), incubated for a minimum of an additional 30 min at 25° with occassional mixing, and then centrifuged at 10,000×g for 1 min. An aliquot of the supernatant (800 μL) containing the enzymatically released ^14 C-acetate was removed, mixed with Aquasol 2 liquid scintillation counter (LSC) cocktail (10 mL), and counted in a Beckman model LS-5801 LSC. […]

E. tenella = assay: In vitro antiparasitic activity against E. tenella; assay type: cell-based, Eimeria tenella
Excerpt: ^(1) Generally following the procedure described in Crane, Schmatz, Stevens, Habbersett and Murray. Eimeria tenella: in vitro development in irradiated bovine kidney cells.(1984) Parasitology 88: 521-530.

[4] = system: Eimeria HDAase (histone deacetylase); assay: Histone deacetylase inhibition assay (Assay 1), E. tenella extract; assay type: biochemical, Eimeria tenella
Description: as §6

P. falciparum = assay: In vitro antiparasitic activity against P. falciparum; assay type: cell-based, Plasmodium falciparum
Excerpt: ^(2) Generally following the procedure described in Desjardins et al, "Quantitative Assessment of Antimalarial Activity In Vitro by a Semiautomated Microdilution Technique" Antimicrobial Agents and Chemotherapy, 1979, 16:710-718.

selectivity for E. tenella over chicken liver lysate in binding assay [1] | IC50 [2] [µM] | SMILES | hyperacetylation of HeLa cell histones (shift in histone gel profile) (HeLa cell histones) | hyperacetylation of P. falciparum histones (P. falciparum histones) | other results
selective | > 1 | CCC(=O)CCCCC[C@@H]1NC(=O)[C@H]2CCCCN2C(=O)[C@H](C(C)CC)NC(=O)[C@H](c2cn(OC)c3ccccc3c2=O)NC1=O (stereo partly shown) [Compound IIA] | – | – | –
selective | > 1 | CCC(=O)CCCCC[C@@H]1NC(=O)[C@H]2CCCCN2C(=O)[C@H](C(C)CC)NC(=O)[C@H](c2c[nH]c3ccccc3c2=O)NC1=O (stereo partly shown) [Compound IIB] | – | – | –
– | – | CCC(=O)CCCCC[C@@H]1NC(=O)[C@H]2CCCCN2C(=O)[C@H]([C@@H](C)CC)NC(=O)[C@H](Cc2cn(OC)c3ccccc23)NC1=O [Compound Ia, Apicidin] | cause a distinct shift in the histone gel profiles | cause hyperacetylation | –
– | – | CC(/C=C/C(=O)NO)=C\[C@@H](C)C(=O)c1ccc(N(C)C)cc1 [trichostatin] | cause a distinct shift in the histone gel profiles | cause hyperacetylation | –

SMILES | selectivity for E. tenella over chicken liver lysate in binding assay [1] | IC50 [2] [µM] | hyperacetylation of HeLa cell histones (shift in histone gel profile) (HeLa cell histones) | hyperacetylation of P. falciparum histones (P. falciparum histones) | other results
CC(/C=C/C(=O)O)=C\[C@@H](C)C(=O)c1ccc(N(C)C)cc1 [trichostatic acid] | – | > 1 | – | – | activity in binding assay (in words), E. tenella lysate [1]: no activity; IC50 ([1]; displacement of 3H-N-desmethoxyapicidin, E. tenella S100): > 1 µM; activity in enzyme inhibition assay (in words), chicken liver extract [3]: inactive; activity against E. tenella (in words) (E. tenella): not active; activity in binding assay (in words), chicken liver lysate [2]: no activity; activity in enzyme inhibition assay (in words), E. tenella extract [4]: inactive; activity against P. falciparum (in words) (P. falciparum): not active
